Where “and” joins values, the source holds several entries; their conditions need not be identical. Identical values can stand only once. Entries after “also recorded” stand apart in the source; their conditions may differ.
Assays:
[1] = tested on: dispersed mouse islet cells; test: EphA4 shedding into culture medium (EphA4 ELISA); assay type: cell-based; settings: Supplemental Figure 4D
Experimental: (§1) Pancreata of nondiabetic C57BL/6J mice were digested using collagenase P (Roche Diagnostics, catalog 11213873001), and islets were manually picked up using a stereomicroscope (ZEISS Stemi 305). […] Isolated mouse islets or provided human islets were dispersed as described ([28]). Briefly, 100–120 islets were washed 2 times using modified HBSS, then dispersed in 600 μL Accutase (Innovative Cell Technologies, catalog AT-104) by gently pipetting up and down for 7 minutes at 37°C. […] Following refreshing of KRBH, cells were dispensed in 8 microfuge tubes (2,000 cells/tube) and treated with WCDD301, preclustered Ephrin-A5 Fc, or preclustered Fc in the presence or absence of the competitive inhibitor of EphA4 receptor, rhyncophylline ([60]) (MilliporeSigma, catalog SML2345). In the presence or absence of these effectors, secretion assay was performed sequentially as shown in Supplemental Table 5. […] Preclustering of Ephrin-A5 Fc was done by mixing Ephrin-A5 Fc or Fc alone (BioLegend, catalog 790102) with anti-Fc antibody (Invitrogen, catalog A16086) (1:10 molar ratio) 20 minutes before treatment ([62]). […] Shedding of cleaved EphA4 was measured from the cell culture medium. Experiments were performed by dispersion of 200 islets, and EphA4 levels in media were measured by EphA4 ELISA (ABclonal, catalog RK06572).

[2] = tested on: diabetic NOD mice; test: Blood glucose in diabetic NOD mice, once-daily oral WCDD301 in SAIB-Agar; assay type: in vivo, mouse; set-up: Blood glucose: unit: mg/dL; settings: for Blood glucose: oral 7.5 mg/kg once daily, per mouse, Figure 6A, 7.5 mg/kg
Experimental: For the polygenic model for T1D (the Jackson Laboratory), 10 cohorts of independent NOD/shiLTJ mice (each 10, equal numbers of females and males) were purchased at 7–9 weeks old. Blood glucose levels were monitored twice a week using a glucometer (Glucocard Vital) to find those mice at risk of diabetes. Diabetes was confirmed when the blood glucose levels remained at 200–250 mg/dL for 3 consecutive days. This profile of the blood glucose level is referred to as moderate hyperglycemia.
We prepared sustained time-release pearls for oral administration in the mouse models. To this end, we combined FDA-approved excipients of Eastman BioSustane SAIB NF (product code: 41271-00, sample distribution from Eastman Company, Kingsport, Tennessee, USA; provided by Phillip Cook) and Agar (Lamda Biotech, catalog C110) at the ratio of 1:1.45 (w/w). We also prepared another type of sustained time-release pearl by mixing SAIB, Agar, and L (-) malic acid (MilliporeSigma, catalog 202-601-5) at the ratio of 1:1.4:0.2 (w/w/w). A homogenous paste mixture was prepared, and pearls were formed with 50–60 mg weight and approximately 2 mm diameter by pinching off the mixture and manually rolling.
We preweighed WCDD301 into microfuge tubes and reconstituted it using deionized water. Using a 10 μL pipette tip, we placed the calculated dose of WCDD301 (at the volume range of 1–1.5 μL) within the center of pearls. WCDD301 was placed into pearls 30–45 minutes before administration. For oral administration of pearls, we designed an applicator using a disposable plastic transfer pipette and syringe plunger lubricated with olive oil. Food intake and body weight in each experimental group (diabetic WCDD301-treated, diabetic placebo-treated, and nondiabetic placebo-treated NOD mice) were monitored daily for 4 weeks. Urine glucose was measured from individually caged NOD mice (nondiabetic placebo treated n = 2, diabetic placebo treated n = 2, and diabetic WCDD301 treated n = 4, 21–23 weeks old) with metabolic cages. Urine glucose was monitored every 24 hours for 10 days by semiquantitative measurements (P-STICKS, Millpledge Veterinary).
We applied the following therapeutic regimens in the fed state for oral dosing of pearls containing WCDD301. The therapeutic regimen for diabetic NOD mice with moderate hyperglycemia (n = 6–9; 6 females/3 males) or nondiabetic ones with blood glucose levels of < 140 mg/dL (females, n = 5) was dose 7.5 mg/kg, dosage once a day, and excipient SAIB-Agar, 50–60 mg. The therapeutic regimen for STZ-induced diabetic mice with early severe hyperglycemia (n = 3, placebo group; n = 4 treatment group, females) was dose 10 mg/kg, dosage once a day, and excipient SAIB-Agar-malic acid, 50–60 mg.

[3] = Microsomal stability assay, human liver microsomes; assay type: in vitro ADME; settings: for Remaining in hepatic microsomes (100 at 0 min): human microsomes, Figure 5C
Experimental: A total of 445 μL of the working solution was transferred into prewarmed incubation plates for treated (T60) and control (NCF60) measurements. After preincubation (10 minutes at 37°C with constant shaking), 54 μL was transferred to the blank plate, followed by 6 μL of NADPH and 180 μL quenching solution. In parallel, 5 μL of WCDD301 (100 μM) was added into incubation plates (T60 and NCF60) containing microsomes and mixed thoroughly (3 times). For the NCF60 plate, 50 μL of buffer was added, mixed (thoroughly, 3 times), shaken, and incubated at 37°C for 60 minutes. In the quenching plate T0, quenching solution (180 μL) and NADPH cofactor (6 μL) were added. For T60 plate, 54 μL of the mixture was placed into the quenching plate (for T0 point), followed by adding 44 μL NADPH cofactor with shaking incubation at 37°C for 60 minutes. Quenching solution (180 μL) was added to quenching plates at 5, 15, 30, 45, and 60 minutes, and 60 μL of sample was transferred from T60 plate per time point to the quenching plates. For the NCF60 plates, 60 μL sample from the NCF60 incubation plate was transferred to the quenching plate (containing quenching solution) at the 60-minute time point. After plates were shaken for 10 minutes and centrifuged (1,750g, 20 minutes at 4°C), 80 μL of the supernatant was transferred into 240 μL HPLC water for LC-MS/MS analysis. The following first-order kinetic equation was used to calculate half-life (T1/2): [drawing 3]; when
Then, intrinsic clearance [CLint (microsomal; mic)] and hepatic clearance [CLint (liver)] were predicted using the following equations ([66]): […]

[4] = tested on: murine dispersed islet cells; test: Insulin secretion from murine dispersed islet cells; assay type: cell-based, mouse; settings: for Relative secretion of insulin: one value per mouse
Experimental: as §1

SMILES: CC(=O)OCC(N)(COC(C)=O)COC(C)=O [WCDD301, 2-(acetoxymethyl)-2-aminopropane-1,3-diyl diacetate]
- Shedding of EphA4 into the cell culture medium [1]: reduced shedding of EphA4 into the cell culture medium
- Blood glucose (Supplemental Figure 6A) ([2]; 48h later (after stopping dosing)): 350 mg/dL and 370 mg/dL and 330 mg/dL
- Blood glucose (Supplemental Figure 6A) ([2]; A week after resuming dosing): 119 mg/dL and 124 mg/dL and 131 mg/dL
- Blood glucose (Supplemental Figure 6A) ([2]; Stoping dosing): 119 mg/dL and 109 mg/dL and 124 mg/dL
- Blood glucose (Supplemental Figure 6A) ([2]; Week 1): 184 mg/dL and 200 mg/dL and 210 mg/dL
- Blood glucose (Supplemental Figure 6A) ([2]; Week 2): 122 mg/dL and 116 mg/dL and 109 mg/dL
- Blood glucose (Supplemental Figure 6A) ([2]; Week 3): 132 mg/dL and 147 mg/dL and 115 mg/dL
- Effect on blood glucose ([2]; diabetic NOD mice, moderate hyperglycemia (200–250 mg/dL), once-daily oral, SAIB-Agar): significantly reduced blood glucose levels within a week of administration; also recorded: normalized blood glucose level during an 11-week follow-up
- Time to normalized blood glucose ([2]; diabetic NOD mice, SAIB-Agar formulation): ≤ 2 weeks
- Blood glucose ([2]; diabetic NOD mice, Week 1, before treatment 230-251, mg/dL): 165 and 170 and 163 and 184 and 200 and 210 and 198 and 180 and 175
- Blood glucose ([2]; diabetic NOD mice, Week 2): 114 and 125 and 128 and 122 and 116 and 109 and 115
- Blood glucose ([2]; diabetic NOD mice, Week 3): 120 and 115 and 116 and 132 and 147 and 109 and 110
- Blood glucose ([2]; diabetic NOD mice, Week 4): 119 and 124 and 108 and 112 and 115 and 110
- Blood glucose ([2]; diabetic NOD mice, Week 5): 109 and 105 and 115 and 118 and 117
- Blood glucose ([2]; diabetic NOD mice, Week 6): 105 and 107 and 104 and 120 and 112 and 118
- Blood glucose ([2]; diabetic NOD mice, Week 7): 109 and 105 and 106 and 110 and 118 and 116
- Blood glucose ([2]; diabetic NOD mice, Week 8): 109 and 107 and 110 and 118 and 116
- Blood glucose ([2]; diabetic NOD mice, Week 9): 114 and 109 and 120 and 105 and 118 and 98
- Blood glucose ([2]; diabetic NOD mice, Week 10): 119 and 114 and 117 and 102 and 105 and 108
- Blood glucose ([2]; diabetic NOD mice, Week 11): 109 and 112 and 116 and 114 and 108 and 110
- Blood glucose after discontinuing for 48 hours and resuming dosing ([2]; treated diabetic NOD mice, Supplemental Figure 6A): resulted in hyperglycemia; also recorded: Euglycemia returned after resuming the WCDD301 dosing
- Microsomal stability in human versus mouse preparation ([3]; human higher than mouse): > 1.5 fold
- Remaining in hepatic microsomes (100 at 0 min) ([3]; 5 min): 86.1
- Remaining in hepatic microsomes (100 at 0 min) ([3]; 15 min): 78
- Remaining in hepatic microsomes (100 at 0 min) ([3]; 30 min): 77.8
- Remaining in hepatic microsomes (100 at 0 min) ([3]; 45 min): 77.5
- Remaining in hepatic microsomes (100 at 0 min) ([3]; 60 min): 72.4
- half-life at 1 µM ([3]; human, liver microsomes): > 2.42 h
- microsomal CLint at 1 µM ([3]; human, liver microsomes, read-out: Intrinsic microsomal clearance): < 9.6 µL/min/mg
- Hepatic clearance ([3]; human, predicted from microsomal data): < 8.6 mL/min/kg
- Relative secretion of insulin ([4]; 301 (1.5 µM), Glucose (1 mM), Figure 1G): 0.28 and 0.38 and 0.3 and 0.32 and 0.23
- Relative secretion of insulin ([4]; 301 (1.5 µM), Glucose (11 mM), Figure 1G): 1.22 and 1.05 and 0.8 and 0.98 and 1.49
- Relative secretion of insulin ([4]; 301 (3 µM), Glucose (1 mM), Figure 1G): 0.49 and 0.38 and 0.4 and 0.28 and 0.53
- Relative secretion of insulin ([4]; 301 (3 µM), Glucose (11 mM), Figure 1G): 0.67 and 1.1 and 0.98 and 1.25 and 0.63
- Effect on insulin secretion ([4]; Figure 1G): without significant effects
- Effect on insulin secretion in presence of rhyncophylline ([4]; WCDD301 3 μM, Supplemental Figure 3): no significant effect on insulin secretion
